For experiment [1], the target named is T1, LHRH receptors (Rattus norvegicus, UniProt P30969).
T1 sequence (P30969 1-327): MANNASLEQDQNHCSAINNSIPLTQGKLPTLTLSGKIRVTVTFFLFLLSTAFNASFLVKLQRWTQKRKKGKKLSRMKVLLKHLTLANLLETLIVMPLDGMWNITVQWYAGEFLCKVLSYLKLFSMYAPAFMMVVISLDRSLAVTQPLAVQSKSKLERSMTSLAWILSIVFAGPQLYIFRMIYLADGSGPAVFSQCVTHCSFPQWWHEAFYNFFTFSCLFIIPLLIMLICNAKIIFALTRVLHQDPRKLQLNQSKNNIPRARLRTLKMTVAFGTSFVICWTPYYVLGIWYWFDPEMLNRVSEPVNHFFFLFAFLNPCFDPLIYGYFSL
In words: Radioligand receptor binding assay, rat pituitary membranes. The following applies: radioiodinated [D-Leu6-des Gly10]-LHRH ethyl amide 50 pM, 2 hours at 4° C., read-out: Receptor Binding pkI (converted). The method, then: The radioligand (50 pM), receptors, and compounds to be tested are coincubated for 2 hours at 4° C. Bound ligand is separated from free ligand via centrifugation and aspiration.

In experiment [2] the test system is LH concentration in the blood. In words: In vivo LH inhibition in male castrate rats. More on the design: species or system rat. The note with it: AUC of log(LHt/LHi) over 24 hours, 30 ug/kg subcutaneous bolus. The method, then:
The compound to be tested is administered at 30 μg/kg subcutaneously by bolus injection to male castrate rats and blood samples are collected periodically over 24 hours. The AUC (area under the curve) of the LH supression data as a function of time is calculated using the formula log (LHt /LHi) wherein LHt is the LH concentration in the blood at time t and LHi is the initial baseline value for the concentration of LH in the blood. The AUC values are negative numbers.

From patent publication US5110904A (Abbott Laboratories, priority 1990, dated 1992) come the findings set out here.

Starred links: 1 amine or outer side, 2 acyl side, 3 side chain; linkers in the order of their positions; H or OH if unused. Non-standard residues stand in square brackets, D forms with d. Residues, ends and D or L forms follow the SMILES beside them. Groups on a side chain read outwards from the residue. *: point of attachment. dAla(4-thiazolyl) = N[C@H](Cc1cscn1)C(=O)O; dPhe(4-Cl) = N[C@H](Cc1ccc(Cl)cc1)C(=O)O; d1Nal = N[C@H](Cc1cccc2ccccc12)C(=O)O; d2Nal = N[C@H](Cc1ccc2ccccc2c1)C(=O)O; dLys(iPr) = CC(C)NCCCC[C@@H](N)C(=O)O; d(hCit) = NC(=O)NCCCC[C@@H](N)C(=O)O; Lys(iPr) = CC(C)NCCCC[C@H](N)C(=O)O; NMeY = CN[C@@H](Cc1ccc(O)cc1)C(=O)O; dBta = N[C@H](Cc1csc2ccccc12)C(=O)O; Piperazinyl(4-Me) = CN1CCN(*)CC1; d3Pal = N[C@H](Cc1cccnc1)C(=O)O; Cha = N[C@@H](CC1CCCCC1)C(=O)O; d2Thi = N[C@H](Cc1cccs1)C(=O)O; NMeL = CN[C@@H](CC(C)C)C(=O)O; Nicotinoyl = O=C(c1cccnc1)*; NMeS = CN[C@@H](CO)C(=O)O; CO = O=C([*:1])[*:2]; Sar = CNCC(=O)O

`CC(=O)N[C@H](Cc1ccc2ccccc2c1)C(=O)N[C@H](Cc1ccc(Cl)cc1)C(=O)N[C@H](Cc1cccnc1)C(=O)N(C)[C@@H](CO)C(=O)N[C@@H](CCCCNC(=O)c1cccnc1)C(=O)N[C@H](CCCCNC(=O)c1cccnc1)C(=O)N[C@@H](CC(C)C)C(=O)N[C@@H](CCCCNC(C)C)C(=O)N1CCC[C@H]1C(=O)N[C@H](C)C(N)=O` [Ex. 35, N-Ac-D-2-Nal-D-4-Cl-Phe-D-3-Pal-N-Me-Ser-Lys-(N-epsilon-nicotinyl)-D-Lys-(N-epsilon-nicotinyl)-Leu-Lys-(N-epsilon-isopropyl)-Pro-D-AlaNH2] (Ac-[d2Nal][dPhe(4-Cl)][d3Pal][NMeS]K(Nicotinoyl)[dK](Nicotinoyl)L[Lys(iPr)]P[dA]-NH2): the Ki in experiment [1] is 479 pM. Besides, the “AUC (24 hr. after 30 ug/kg)” value in experiment [2] is recorded as -510. Taken in the same sequence, the figures for `CC(=O)N[C@H](Cc1ccc2ccccc2c1)C(=O)N[C@H](Cc1ccc(Cl)cc1)C(=O)N[C@H](Cc1cccnc1)C(=O)N[C@@H](CO)C(=O)N(C)[C@@H](Cc1ccc(O)cc1)C(=O)N[C@H](CCCCNC(=O)c1cccnc1)C(=O)N[C@@H](CC(C)C)C(=O)N[C@@H](CCCCNC(C)C)C(=O)N1CCC[C@H]1C(=O)N[C@H](C)C(N)=O` [Ex. 38, N-Ac-D-2-Nal-D-4-Cl-Phe-D-3-Pal-Ser-N-Me-Tyr-D-Lys(N-epsilon-nicotinyl)-Leu-Lys(N-epsilon-isopropyl)-Pro-D-AlaNH2] (Ac-[d2Nal][dPhe(4-Cl)][d3Pal]S[NMeY][dK](Nicotinoyl)L[Lys(iPr)]P[dA]-NH2) were 31.6 pM and -1000. Taken in the same sequence, the figures for `CC(=O)N[C@H](Cc1ccc2ccccc2c1)C(=O)N[C@H](Cc1ccc(Cl)cc1)C(=O)N[C@H](Cc1cscn1)C(=O)N[C@@H](CO)C(=O)N(C)[C@@H](Cc1ccc(O)cc1)C(=O)N[C@H](CCCCNC(=O)c1cccnc1)C(=O)N[C@@H](CC(C)C)C(=O)N[C@@H](CCCCNC(C)C)C(=O)N1CCC[C@H]1C(=O)N[C@H](C)C(N)=O` [Ex. 43, N-Ac-D-2-Nal-D-4-Cl-Phe-D-4-Thiaz-Ser-N-Me-Tyr-D-Lys-(N-epsilon-nicotinyl)-Leu-Lys(N-epsilon-isopropyl)-Pro-D-AlaNH2] (Ac-[d2Nal][dPhe(4-Cl)][dAla(4-thiazolyl)]S[NMeY][dK](Nicotinoyl)L[Lys(iPr)]P[dA]-NH2) were 33.9 pM and -337. As for `CC(=O)N[C@H](Cc1ccc(Cl)cc1)C(=O)N[C@H](Cc1ccc(Cl)cc1)C(=O)N[C@H](Cc1cccc2ccccc12)C(=O)N[C@@H](CO)C(=O)N(C)[C@@H](Cc1ccc(O)cc1)C(=O)N[C@H](CCCCN)C(=O)N[C@@H](CC(C)C)C(=O)N[C@@H](CCCNC(=N)N)C(=O)N1CCC[C@H]1C(=O)N[C@H](C)C(N)=O` [Ex. 46, N-Ac-D-4-Cl-Phe-D-4-Cl-Phe-D-1-Nal-Ser-N-Me-Tyr-D-Lys-Leu-Arg-Pro-D-AlaNH2] (Ac-[dPhe(4-Cl)][dPhe(4-Cl)][d1Nal]S[NMeY][dK]LRP[dA]-NH2), in experiment [2], the “AUC (24 hr. after 30 ug/kg)” value is given as -1513.

With `CC(=O)N[C@H](Cc1ccc(Cl)cc1)C(=O)N[C@H](Cc1ccc(Cl)cc1)C(=O)N[C@H](Cc1ccc2ccccc2c1)C(=O)N[C@@H](CO)C(=O)N(C)[C@@H](Cc1ccc(O)cc1)C(=O)N[C@H](CCCCNC(=O)c1cccnc1)C(=O)N(C)[C@@H](CC(C)C)C(=O)N[C@@H](CCCNC(=N)N)C(=O)N1CCC[C@H]1C(=O)N[C@H](C)C(N)=O` [Ex. 57, N-Ac-D-4-Cl-Phe-D-4-Cl-Phe-D-2-Nal-Ser-N-Me-Tyr-D-Lys(N-epsilon-nicotinyl)- N-Me-Leu-Arg-Pro-D-AlaNH2] (Ac-[dPhe(4-Cl)][dPhe(4-Cl)][d2Nal]S[NMeY][dK](Nicotinoyl)[NMeL]RP[dA]-NH2), in experiment [1], the Ki is 372 pM.

With `CC(=O)N[C@H](Cc1ccc(Cl)cc1)C(=O)N[C@H](Cc1ccc(Cl)cc1)C(=O)N[C@H](Cc1cccs1)C(=O)N[C@@H](CO)C(=O)N[C@@H](Cc1ccc(O)cc1)C(=O)N[C@H](CCCCN)C(=O)N[C@@H](CC(C)C)C(=O)N[C@@H](CCCNC(=N)N)C(=O)N1CCC[C@H]1C(=O)N(C)CC(N)=O` [Ex. 58, N-Ac-D-4-Cl-Phe-D-4-Cl-Phe-D-2-Thia-Ser-Tyr-D-Lys-Leu-Arg-Pro-SarNH2] (Ac-[dPhe(4-Cl)][dPhe(4-Cl)][d2Thi]SY[dK]LRP[Sar]-NH2), in experiment [1], the Ki was 8.71 pM.

With `CC(=O)N[C@H](Cc1ccc(Cl)cc1)C(=O)N[C@H](Cc1ccc(Cl)cc1)C(=O)N[C@H](Cc1cccc2ccccc12)C(=O)N[C@@H](CO)C(=O)N(C)[C@@H](Cc1ccc(O)cc1)C(=O)N[C@H](CCCCNC(N)=O)C(=O)N[C@@H](CC(C)C)C(=O)N[C@@H](CCCNC(=N)N)C(=O)N1CCC[C@H]1C(=O)N[C@H](C)C(N)=O` [Ex. 59, N-Ac-D-4-Cl-Phe-D-4-Cl-Phe-D-1-Nal-Ser-N-Me-Tyr-D-H-Cit-Leu-Arg-Pro-D-AlaNH2] (Ac-[dPhe(4-Cl)][dPhe(4-Cl)][d1Nal]S[NMeY][d(hCit)]LRP[dA]-NH2), the Ki in experiment [1] was 97.7 pM. Same read-out and setting: with `CC(=O)N[C@H](Cc1ccc(Cl)cc1)C(=O)N[C@H](Cc1ccc(Cl)cc1)C(=O)N[C@H](Cc1csc2ccccc12)C(=O)N[C@@H](CO)C(=O)N(C)[C@@H](Cc1ccc(O)cc1)C(=O)N[C@H](CCCCNC(C)C)C(=O)N[C@@H](CC(C)C)C(=O)N[C@@H](CCCNC(=N)N)C(=O)N1CCC[C@H]1C(=O)N[C@H](C)C(N)=O` [Ex. 60, N-Ac-D-4-Cl-Phe-D-4-Cl-Phe-D-3-Bal-Ser-N-Tyr-D-Lys(N-epsilon-isopropyl)-Leu-Arg-Pro-D-AlaNH2] (Ac-[dPhe(4-Cl)][dPhe(4-Cl)][dBta]S[NMeY][dLys(iPr)]LRP[dA]-NH2) the figure was 22.9 pM; with `CC(=O)N[C@H](Cc1ccc2ccccc2c1)C(=O)N[C@H](Cc1ccc(Cl)cc1)C(=O)N[C@H](Cc1cccnc1)C(=O)N[C@@H](CO)C(=O)N(C)[C@@H](Cc1ccc(O)cc1)C(=O)N[C@H](Cc1cccnc1)C(=O)N[C@@H](CC(C)C)C(=O)N[C@@H](CCCCNC(C)C)C(=O)N1CCC[C@H]1C(=O)N[C@H](C)C(N)=O` [Ex. 61, N-Ac-D-2-Nal-D-4-Cl-Phe-D-3-Pal-Ser-N-Me-Tyr-D-3-Pal-Leu-Lys(N-epsilon-isopropyl)-Pro-D-AlaNH2] (Ac-[d2Nal][dPhe(4-Cl)][d3Pal]S[NMeY][d3Pal]L[Lys(iPr)]P[dA]-NH2), 49 pM. The same measure, in the same setting: with `CC(=O)N(C)CC(=O)N[C@H](Cc1ccc(Cl)cc1)C(=O)N[C@H](Cc1csc2ccccc12)C(=O)N[C@@H](CO)C(=O)N(C)[C@@H](Cc1ccc(O)cc1)C(=O)N[C@H](CCCCNC(=O)c1cccnc1)C(=O)N[C@@H](CC(C)C)C(=O)N[C@@H](CCCCNC(C)C)C(=O)N1CCC[C@H]1C(=O)N[C@H](C)C(N)=O` [Ex. 64, N-Ac-Sar-D-4-Cl-Phe-D-3-Bal-Ser-N-Me-Tyr-D-Lys(N-epsilon-nicotinyl)-Leu-Lys(N-epsilon-isopropyl)-Pro-D-Ala-NH2] (Ac-[Sar][dPhe(4-Cl)][dBta]S[NMeY][dK](Nicotinoyl)L[Lys(iPr)]P[dA]-NH2) the figure was 10.2 pM; with `CC(=O)N[C@H](Cc1ccc2ccccc2c1)C(=O)N[C@H](Cc1ccc(Cl)cc1)C(=O)N[C@H](Cc1cccnc1)C(=O)N[C@@H](CO)C(=O)N(C)[C@@H](Cc1ccc(O)cc1)C(=O)N[C@H](CCCCNC(=O)c1cccnc1)C(=O)N[C@@H](CC1CCCCC1)C(=O)N[C@@H](CCCNC(=N)N)C(=O)N1CCC[C@H]1C(=O)N[C@H](C)C(N)=O` [Ex. 66, N-Ac-D-2-Nal-D-4-Cl-Phe-D-3-Pal-Ser-N-Me-Tyr-D-Lys(N-epsilon-nicotinyl)-Cha-Arg-Pro-D-AlaNH2] (Ac-[d2Nal][dPhe(4-Cl)][d3Pal]S[NMeY][dK](Nicotinoyl)[Cha]RP[dA]-NH2), 14.1 pM. Turning to `CC(=O)N[C@H](Cc1ccc(Cl)cc1)C(=O)N[C@H](Cc1ccc(Cl)cc1)C(=O)N[C@H](Cc1cccs1)C(=O)N[C@@H](CO)C(=O)N(C)[C@@H](Cc1ccc(O)cc1)C(=O)N[C@H](CCCCNC(=O)c1cccnc1)C(=O)N(C)[C@@H](CC(C)C)C(=O)N[C@@H](CCCNC(=N)N)C(=O)N1CCC[C@H]1C(=O)N[C@H](C)C(N)=O` [Ex. 68, N-Ac-D-4-Cl-Phe-D-4-Cl-Phe-D-2-Thia-Ser-N-Me-Tyr-D-Lys(N-epsilon-nicotinyl)-N-Me-Leu-Arg-Pro-D-Ala-NH2] (Ac-[dPhe(4-Cl)][dPhe(4-Cl)][d2Thi]S[NMeY][dK](Nicotinoyl)[NMeL]RP[dA]-NH2), the Ki in experiment [1] was 120 pM.

As for `CC(=O)N[C@H](Cc1ccc2ccccc2c1)C(=O)N[C@H](Cc1ccc(Cl)cc1)C(=O)N[C@H](Cc1cccnc1)C(=O)N[C@@H](CO)C(=O)N(C)[C@@H](Cc1ccc(O)cc1)C(=O)N[C@H](CCCCNC(=O)N1CCN(C)CC1)C(=O)N[C@@H](CC(C)C)C(=O)N[C@@H](CCCCNC(C)C)C(=O)N1CCC[C@H]1C(=O)N[C@H](C)C(N)=O` [Ex. 70, N-Ac-D-2--Nal-D-4-Cl-Phe-D-3-Pal-Ser-N-Me-Tyr-D-Lys(N-epsilon-CO-NMePip)-Leu-Lys(N-epsilon-isopropyl)-Pro-D-AlaNH2] (Ac-[d2Nal][dPhe(4-Cl)][d3Pal]S[NMeY][dK]([CO-Piperazinyl(4-Me)])L[Lys(iPr)]P[dA]-NH2), the Ki in experiment [1] was 12 pM.
